Consider ten compounds from patent US20120252792A1, “METHODS AND COMPOSITIONS FOR MODULATING RHO-MEDIATED GENE TRANSCRIPTION” (THE REGENTS OF THE UNIVERSITY OF MICHIGAN, priority 2009, published 2012).

The subject of one series is Rho/MKL1 pathway. The series can be described thus: SRE.L-firefly luciferase reporter (dual luciferase assay), Gα12QL-transfected PC-3 cells. In kind it is cell-based, human. The note with it: for inhibition at 10 µM: read-out: % inh SRE.L (10 μM); for inhibition at 100 µM: read-out: % inh SRE.L (100 μM). The protocol: (§1) Dual Luciferase Assay: Seed PC-3 prostate cancer cells (40,000 cells/well) were grown in 96-well plates in 10% FBS containing DMEM medium. Cells were transiently transfected with the Gα12QL activator of the Rho/MKL1 pathway, along with the SRE.L-firefly luciferase reporter construct for 6 hours. Additionally, cells were co-transfected with the TK-Renilla luciferase reporter as an indicator of non-specific compound effects. Various concentrations of selected compounds were added to the 96-well plates. Plates were incubated for 19 hours at 37° C. and 5% CO2 in 0.5% FBS containing DMEM medium. Cells were lysed with 1X Passive Lysis Buffer (Promega). Plates were incubated for 30 minutes at room temperature. Luminescence counts were read with a Victor2 (Perkin-Elmer) plate reader.
(In general: In a reporter assay the amount or activity of a reporter protein is the signal.)

Series [1] has as its system TK-Renilla luciferase reporter. The series can be described thus: TK-Renilla (pRL-TK) luciferase reporter, indicator of non-specific compound effects. In kind it is cell-based, human. The note with it: PC-3 cells; for inhibition at 10 µM / inhibition at 100 µM: Homo sapiens, PC-3, 19 h; for inhibition at 10 µM: read-out: % inh PRL-TK (10 μM); for inhibition at 100 µM: read-out: % inh PRL-TK (100 μM). The protocol: as §1

The subject of series [2] is PC-3 prostate cancer cells. As to the kind of experiment: WST1 cell viability assay. In kind it is cell-based, human. The note with it: PC-3 cells, just before lysis; for inhibition at 10 µM / inhibition at 100 µM: Homo sapiens; for inhibition at 10 µM: PC-3, 10 μM, read-out: % inh WST-1 (10 μM); for inhibition at 100 µM: PC-3, 100 μM, read-out: % inh WST-1 (100 μM). As to the method:
WST1 Cell Viability Assay: One hour prior to cell lysis for the dual luciferase assay, 10 μl per well of WST1 reagent (Roche) was added to the 96-well plates. Plates were incubated for 1 hour at 37° C. and 5% CO2. Cell viability was measured by WST1 absorbance at 450 nm with a Victor2 (Perkin-Elmer) plate reader.

Series [3] can be described thus: In vivo studies using CCG-1423.
Series [4] has as its system PC-3 cells, melanoma and other cancer cell lines. The series can be described thus: Cancer cell proliferation and survival (BrdUrd, WST-1, caspase-3; FIG. 2). In kind it is cell-based. As to the method:
A, PC-3 cells were treated for 27 h with 100 μmol/L LPA in the presence or absence of various concentrations of CCG-1423, labeled with BrdUrd, and stained, and absorbance was read 450 nm. B, various cell lines were treated with […] LPA with or without […] CCG-1423, and then on day 8, WST-1 absorbance was read at 450 nm Black columns indicate four melanoma lines with differing expression of RhoC (A375M2 and SK-MeI-147 have high expression, whereas the parental line A375 (used to derive A375M2) and SK-Mel-28 have lower expression); gray columns indicate several other cancer cell lines; white column indicates the nontransformed fibroblast line WI-38. C, A375 and A375M2 cells were treated with 3 μmol/L CCG-1423 or 3 μmol/L daunorubicin for 25 h, and then caspase-3 activity was measured with a fluorescent substrate (Z0DEVD0R110) using excitation at 485 nm and emission detection at 520 nm. In A and C, data are expressed as a percentage of the no FBS control. In B, data are expressed as percentage of the LPA+DMSO control. All data represent n=3.
A general note: Formazan colour is commonly taken as a measure of viable cells.

In series [5] the test system is PC-3 prostate cancer cells. As to the kind of experiment: Matrigel invasion, spontaneous (FIG. 3). In kind it is cell-based, human. The note with it: 3 μmol/L, spontaneous invasion through Matrigel. The protocol:
A, LPA stimulates invasion of SKOV-3 but not PC-3 cells. Invasion of Matrigel®-coated filters by serum-starved PC-3 prostate cancer or SKOV-3 ovarian cancer cells were measured with or without 30 μmol/L LPA as chemoattractant. B, CCG-1423 inhibits PC-3 cell invasion, whereas PTX inhibits SKOV-3 cell invasion. The effects of CCG-1423 (3 μmol/L) and PTX (100 ng/mL) on spontaneous (PC-3) or LPA-stimulated (SKOV-3) invasion through Matrigel® were measured. In B, data are expressed as a percentage of control. All data represent n=3.

Series [6] deals with Rho/MKL1 mediated transcription. The note with it: read-out: IC50 for blocking gene transcription; cited from earlier work.
In series [7] the test system is Rho-expressing prostate cancer and melanoma cell lines. Particulars: read-out: IC50 for inhibiting DNA synthesis, cell growth and survival, and Matrigel invasion; cited from earlier work.
Setting [8] is: Homo sapiens, 19 h, 10 μM, DMSO alone = 0%.
Where [9] appears, read: Homo sapiens, 19 h, DMSO alone = 0%.

A word on the IC50: it is the concentration that gives 50% inhibition. Compound `O=C(NCc1csc(-c2ccc(Cl)cc2)n1)c1cc(C(F)(F)F)cc(C(F)(F)F)c1` [Compound 18, N-((2-(4-chlorophenyl)thiazol-4-yl)methyl)-3,5-bis(trifluoromethyl)benzamide] returned an IC50 with Rho/MKL1 pathway (Homo sapiens, 19 h) of 4.1 µM. For the same compound, the inhibition at 10 µM came out at 50% in the series with Rho/MKL1 pathway (setting [8]), 39% in series [1] (10 μM) and 0% in series [2]. Further, the inhibition at 100 µM in the series on Rho/MKL1 pathway (setting [9]) worked out at 45%; in series [1] it was 38%; in series [2] it was 0%.
The compound `O=C(CC1CC(c2cc(C(F)(F)F)cc(C(F)(F)F)c2)=NO1)Nc1ccc(Cl)cc1` (stereo not drawn) [Compound 23, 2-(3-(3,5-bis(trifluoromethyl)phenyl)-4,5-dihydroisoxazol-5-yl)-N-(4-chlorophenyl)acetamide] registered an IC50 in the series on Rho/MKL1 pathway (Homo sapiens, 19 h) of 4.6 µM. The inhibition at 10 µM in the series on Rho/MKL1 pathway (setting [8]) stood at 77%; in series [1] (10 μM), 58%; in series [2], 0%. Also, the inhibition at 100 µM was 87% in the series on Rho/MKL1 pathway (setting [9]), 73% in series [1] and 66% in series [2].
Consider `CC(ONC(=O)c1cc(C(F)(F)F)cc(C(F)(F)F)c1)C(=O)Nc1ccc(Cl)cc1` (stereo not drawn) [CCG-1423], for which the “% inh SRE.L (10 μM)” value in the series on Rho/MKL1 pathway (10 μM, 19 hrs, DMSO alone = 0%) was 74, ND %. Also, the IC50 with Rho/MKL1 pathway (19 hrs) is 1.5 µM; in series [6], 1 µM; in series [7], 1 µM. Further, in series [1] (10 μM, 19 hrs), the “% inh PRL-TK (10 μM)” value is 48, ND %. The “% inh WST-1 (10 μM)” value in series [2] (10 μM) was 44, ND %. In addition, in series [3], the in vivo toxicity result was “limited by non-specific toxicity”. Also, in series [4], the “cancer cell proliferation and survival” value is listed as “inhibits”. Further, the PC-3 cell invasion result in series [5] is recorded as “inhibits”.
On to `O=C(Nc1ccc(Cl)cc1)C1CCCN1C(=O)c1cc(C(F)(F)F)cc(C(F)(F)F)c1` (stereo not drawn) [Compound 7, 1-(3,5-bis(trifluoromethyl)benzoyl)-N-(4-chlorophenyl)pyrrolidine-2-carboxamide], for which, in the series with Rho/MKL1 pathway (Homo sapiens, 19 h), it took 69 µM to reach half-maximal inhibition (IC50). The inhibition at 10 µM turned out to be 23% in the series with Rho/MKL1 pathway (setting [8]), 12% in series [1] (10 μM) and 0% in series [2]. In addition, the inhibition at 100 µM is 83% in the series with Rho/MKL1 pathway (setting [9]), 27% in series [1] and 22% in series [2].
For `O=C(NCCC(=O)N1CCc2cc(Cl)ccc21)c1cc(C(F)(F)F)cc(C(F)(F)F)c1` [Compound 29, N-(3-(5-chloroindolin-1-yl)-3-oxopropyl)-3,5-bis(trifluoromethyl)benzamide], the IC50 in the series on Rho/MKL1 pathway (Homo sapiens, 19 h) was determined as 13 µM. For the same compound, the figures for the inhibition at 10 µM (in the series on Rho/MKL1 pathway (setting [8]); in series [1] (10 μM); in series [2]) were 15%, 0% and 0%, respectively. Moreover, the inhibition at 100 µM with Rho/MKL1 pathway (setting [9]) was 40%; in series [1] it was 1%; in series [2], 0%.
Turning to `O=C(NCCCNc1ccc(Cl)cc1)c1cc(C(F)(F)F)cc(C(F)(F)F)c1` [Compound 15, N-(3-(4-chlorophenylamino)propyl)-3,5-bis(trifluoromethyl)benzamide], the half-inhibitory concentration (IC50) in the series with Rho/MKL1 pathway (Homo sapiens, 19 h) was 5.1 µM. For the same compound, the inhibition at 10 µM in the series on Rho/MKL1 pathway (setting [8]) amounted to 70%; in series [1] (10 μM) it was 37%; in series [2] it was 0%. The inhibition at 100 µM in the series with Rho/MKL1 pathway (setting [9]) was 80%; in series [1] it was 35%; in series [2], 11%.
Turning to `O=C(CNC(=O)c1cc(C(F)(F)F)cc(C(F)(F)F)c1)Nc1ccc(Cl)cc1` [Compound 3, N-(2-(4-chlorophenylamino)-2-oxoethyl)-3,5-bis(trifluoromethyl)benzamide], 33 µM corresponded to half-maximal inhibition in the series with Rho/MKL1 pathway (Homo sapiens, 19 h) (IC50). Also, the inhibition at 10 µM came out at 45% in the series with Rho/MKL1 pathway (setting [8]), 15% in series [1] (10 μM) and 0% in series [2]. Besides, the values for the inhibition at 100 µM (with Rho/MKL1 pathway (setting [9]); in series [1]; in series [2]) were 85%, 25% and 30%, respectively.
In the series on Rho/MKL1 pathway (Homo sapiens, 19 h), `O=C(CCNCc1cc(C(F)(F)F)cc(C(F)(F)F)c1)Nc1ccc(Cl)cc1` [Compound 22, 3-(3,5-bis(trifluoromethyl)benzylamino)-N-(4-chlorophenyl)propanamide] displayed an IC50 of 8.1 µM. Also, the inhibition at 10 µM in the series on Rho/MKL1 pathway (setting [8]) amounted to 64%; in series [1] (10 μM) it was 12%; in series [2] it was 0%. The inhibition at 100 µM in the series on Rho/MKL1 pathway (setting [9]) was found to be 100%; in series [1], 91%; in series [2], 92%.
Take `O=C(CCc1cnnn1-c1cc(C(F)(F)F)cc(C(F)(F)F)c1)Nc1ccc(Cl)cc1` [Compound 59]: in the series with Rho/MKL1 pathway (Homo sapiens, 19 h), the IC50 is > 100 µM. Besides, the inhibition at 10 µM was -3% with Rho/MKL1 pathway (setting [8]), -31.8% in series [1] (10 μM) and -9.5% in series [2]. Also, the inhibition at 100 µM with Rho/MKL1 pathway (setting [9]) is 4.7%; in series [1] it was -13.3%; in series [2], -11.8%.
On to `O=C(Nc1ccccc1C(=O)Nc1ccc(Cl)cc1)c1cc(C(F)(F)F)cc(C(F)(F)F)c1` [Compound 16, N-(2-(4-chlorophenylcarbamoyl)phenyl)-3,5-bis(trifluoromethyl)benzamide], for which the IC50 with Rho/MKL1 pathway (Homo sapiens, 19 h) was 18 µM. The values for the inhibition at 10 µM (with Rho/MKL1 pathway (setting [8]); in series [1] (10 μM); in series [2]) were 34%, 0% and 0%, respectively.
